For assay [1], the target named is T1, Sarcoplasmic Reticular Ca^++ -Release Channel (ryanodine receptor) (Oryctolagus cuniculus, UniProt P11716).
T1 construct: skeletal sarcoplasmic reticulum membrane vesicles; from tissue; host or cells: skeletal muscle sarcoplasmic reticulum membrane vesicles
The settings on record: Table II; footnote * J. MED. CHEM. 30 710 (1987); cited from earlier work.

The target in assay [2] is T2, ryanodine receptor (skeletal sarcoplasmic reticulum membrane vesicles) (Oryctolagus cuniculus, UniProt P11716).
T2 construct: skeletal sarcoplasmic reticulum membrane vesicles; from tissue; host or cells: skeletal muscle sarcoplasmic reticulum membrane vesicles
In words: biochemical. The assay is classed as binding. The settings on record: for IC50: read-out: IC50; for Kd: read-out: KD.

For assay [3], the target named is SR Ca^2+ release channel (junctional SR vesicles from rabbit skeletal muscle) (Oryctolagus cuniculus, UniProt P11716). The assay is described as follows: biochemical. The format is biochemical. The protocol: Briefly, junctional SR vesicles from rabbit skeletal muscle were passively loaded with. ^45 Ca^2+ in the presence and absence of the esters. Ca^2+ -efflux was then initiated by diluting the vesicles 100-fold into a low Ca^2+ -concentration. ^45 Ca^2+ remaining in the vesicles was determined after a 3 sec. efflux period by termination and filtration of the vesicles followed by liquid scintillation counting.

Another assay relates to mammalian cardiac muscle. To be noted: cited from earlier work.
Assay [4] concerns mammalian skeletal muscle. The settings on record: cited from earlier work.
The test system of assay [5] is SR Ca^++ release channel/ryanodine receptor (cardiac and skeletal muscle vesicles). The format is biochemical.
The subject of assay [6] is skeletal muscle sarcoplasmic reticulum (SR). The settings on record: cited from earlier work.
For assay [7], the target named is T1, Sarcoplasmic Reticular Ca^++ -Release Channel (ryanodine receptor). The assay is described as follows: biochemical. The assay is classed as binding. To be noted: vs ryanodine.
[8] abbreviates: 45Ca2+ efflux, skeletal SR vesicles.

“And” between values parts separate entries of the source, which are not always exact repeats. Identical values can stand only once. “Also recorded” adds a separate entry of the source. Like-named read-outs stand apart in the source and are kept apart here. Where only a bound is given, the exact number is not on record here.

T2 sequence (P11716 whole entry): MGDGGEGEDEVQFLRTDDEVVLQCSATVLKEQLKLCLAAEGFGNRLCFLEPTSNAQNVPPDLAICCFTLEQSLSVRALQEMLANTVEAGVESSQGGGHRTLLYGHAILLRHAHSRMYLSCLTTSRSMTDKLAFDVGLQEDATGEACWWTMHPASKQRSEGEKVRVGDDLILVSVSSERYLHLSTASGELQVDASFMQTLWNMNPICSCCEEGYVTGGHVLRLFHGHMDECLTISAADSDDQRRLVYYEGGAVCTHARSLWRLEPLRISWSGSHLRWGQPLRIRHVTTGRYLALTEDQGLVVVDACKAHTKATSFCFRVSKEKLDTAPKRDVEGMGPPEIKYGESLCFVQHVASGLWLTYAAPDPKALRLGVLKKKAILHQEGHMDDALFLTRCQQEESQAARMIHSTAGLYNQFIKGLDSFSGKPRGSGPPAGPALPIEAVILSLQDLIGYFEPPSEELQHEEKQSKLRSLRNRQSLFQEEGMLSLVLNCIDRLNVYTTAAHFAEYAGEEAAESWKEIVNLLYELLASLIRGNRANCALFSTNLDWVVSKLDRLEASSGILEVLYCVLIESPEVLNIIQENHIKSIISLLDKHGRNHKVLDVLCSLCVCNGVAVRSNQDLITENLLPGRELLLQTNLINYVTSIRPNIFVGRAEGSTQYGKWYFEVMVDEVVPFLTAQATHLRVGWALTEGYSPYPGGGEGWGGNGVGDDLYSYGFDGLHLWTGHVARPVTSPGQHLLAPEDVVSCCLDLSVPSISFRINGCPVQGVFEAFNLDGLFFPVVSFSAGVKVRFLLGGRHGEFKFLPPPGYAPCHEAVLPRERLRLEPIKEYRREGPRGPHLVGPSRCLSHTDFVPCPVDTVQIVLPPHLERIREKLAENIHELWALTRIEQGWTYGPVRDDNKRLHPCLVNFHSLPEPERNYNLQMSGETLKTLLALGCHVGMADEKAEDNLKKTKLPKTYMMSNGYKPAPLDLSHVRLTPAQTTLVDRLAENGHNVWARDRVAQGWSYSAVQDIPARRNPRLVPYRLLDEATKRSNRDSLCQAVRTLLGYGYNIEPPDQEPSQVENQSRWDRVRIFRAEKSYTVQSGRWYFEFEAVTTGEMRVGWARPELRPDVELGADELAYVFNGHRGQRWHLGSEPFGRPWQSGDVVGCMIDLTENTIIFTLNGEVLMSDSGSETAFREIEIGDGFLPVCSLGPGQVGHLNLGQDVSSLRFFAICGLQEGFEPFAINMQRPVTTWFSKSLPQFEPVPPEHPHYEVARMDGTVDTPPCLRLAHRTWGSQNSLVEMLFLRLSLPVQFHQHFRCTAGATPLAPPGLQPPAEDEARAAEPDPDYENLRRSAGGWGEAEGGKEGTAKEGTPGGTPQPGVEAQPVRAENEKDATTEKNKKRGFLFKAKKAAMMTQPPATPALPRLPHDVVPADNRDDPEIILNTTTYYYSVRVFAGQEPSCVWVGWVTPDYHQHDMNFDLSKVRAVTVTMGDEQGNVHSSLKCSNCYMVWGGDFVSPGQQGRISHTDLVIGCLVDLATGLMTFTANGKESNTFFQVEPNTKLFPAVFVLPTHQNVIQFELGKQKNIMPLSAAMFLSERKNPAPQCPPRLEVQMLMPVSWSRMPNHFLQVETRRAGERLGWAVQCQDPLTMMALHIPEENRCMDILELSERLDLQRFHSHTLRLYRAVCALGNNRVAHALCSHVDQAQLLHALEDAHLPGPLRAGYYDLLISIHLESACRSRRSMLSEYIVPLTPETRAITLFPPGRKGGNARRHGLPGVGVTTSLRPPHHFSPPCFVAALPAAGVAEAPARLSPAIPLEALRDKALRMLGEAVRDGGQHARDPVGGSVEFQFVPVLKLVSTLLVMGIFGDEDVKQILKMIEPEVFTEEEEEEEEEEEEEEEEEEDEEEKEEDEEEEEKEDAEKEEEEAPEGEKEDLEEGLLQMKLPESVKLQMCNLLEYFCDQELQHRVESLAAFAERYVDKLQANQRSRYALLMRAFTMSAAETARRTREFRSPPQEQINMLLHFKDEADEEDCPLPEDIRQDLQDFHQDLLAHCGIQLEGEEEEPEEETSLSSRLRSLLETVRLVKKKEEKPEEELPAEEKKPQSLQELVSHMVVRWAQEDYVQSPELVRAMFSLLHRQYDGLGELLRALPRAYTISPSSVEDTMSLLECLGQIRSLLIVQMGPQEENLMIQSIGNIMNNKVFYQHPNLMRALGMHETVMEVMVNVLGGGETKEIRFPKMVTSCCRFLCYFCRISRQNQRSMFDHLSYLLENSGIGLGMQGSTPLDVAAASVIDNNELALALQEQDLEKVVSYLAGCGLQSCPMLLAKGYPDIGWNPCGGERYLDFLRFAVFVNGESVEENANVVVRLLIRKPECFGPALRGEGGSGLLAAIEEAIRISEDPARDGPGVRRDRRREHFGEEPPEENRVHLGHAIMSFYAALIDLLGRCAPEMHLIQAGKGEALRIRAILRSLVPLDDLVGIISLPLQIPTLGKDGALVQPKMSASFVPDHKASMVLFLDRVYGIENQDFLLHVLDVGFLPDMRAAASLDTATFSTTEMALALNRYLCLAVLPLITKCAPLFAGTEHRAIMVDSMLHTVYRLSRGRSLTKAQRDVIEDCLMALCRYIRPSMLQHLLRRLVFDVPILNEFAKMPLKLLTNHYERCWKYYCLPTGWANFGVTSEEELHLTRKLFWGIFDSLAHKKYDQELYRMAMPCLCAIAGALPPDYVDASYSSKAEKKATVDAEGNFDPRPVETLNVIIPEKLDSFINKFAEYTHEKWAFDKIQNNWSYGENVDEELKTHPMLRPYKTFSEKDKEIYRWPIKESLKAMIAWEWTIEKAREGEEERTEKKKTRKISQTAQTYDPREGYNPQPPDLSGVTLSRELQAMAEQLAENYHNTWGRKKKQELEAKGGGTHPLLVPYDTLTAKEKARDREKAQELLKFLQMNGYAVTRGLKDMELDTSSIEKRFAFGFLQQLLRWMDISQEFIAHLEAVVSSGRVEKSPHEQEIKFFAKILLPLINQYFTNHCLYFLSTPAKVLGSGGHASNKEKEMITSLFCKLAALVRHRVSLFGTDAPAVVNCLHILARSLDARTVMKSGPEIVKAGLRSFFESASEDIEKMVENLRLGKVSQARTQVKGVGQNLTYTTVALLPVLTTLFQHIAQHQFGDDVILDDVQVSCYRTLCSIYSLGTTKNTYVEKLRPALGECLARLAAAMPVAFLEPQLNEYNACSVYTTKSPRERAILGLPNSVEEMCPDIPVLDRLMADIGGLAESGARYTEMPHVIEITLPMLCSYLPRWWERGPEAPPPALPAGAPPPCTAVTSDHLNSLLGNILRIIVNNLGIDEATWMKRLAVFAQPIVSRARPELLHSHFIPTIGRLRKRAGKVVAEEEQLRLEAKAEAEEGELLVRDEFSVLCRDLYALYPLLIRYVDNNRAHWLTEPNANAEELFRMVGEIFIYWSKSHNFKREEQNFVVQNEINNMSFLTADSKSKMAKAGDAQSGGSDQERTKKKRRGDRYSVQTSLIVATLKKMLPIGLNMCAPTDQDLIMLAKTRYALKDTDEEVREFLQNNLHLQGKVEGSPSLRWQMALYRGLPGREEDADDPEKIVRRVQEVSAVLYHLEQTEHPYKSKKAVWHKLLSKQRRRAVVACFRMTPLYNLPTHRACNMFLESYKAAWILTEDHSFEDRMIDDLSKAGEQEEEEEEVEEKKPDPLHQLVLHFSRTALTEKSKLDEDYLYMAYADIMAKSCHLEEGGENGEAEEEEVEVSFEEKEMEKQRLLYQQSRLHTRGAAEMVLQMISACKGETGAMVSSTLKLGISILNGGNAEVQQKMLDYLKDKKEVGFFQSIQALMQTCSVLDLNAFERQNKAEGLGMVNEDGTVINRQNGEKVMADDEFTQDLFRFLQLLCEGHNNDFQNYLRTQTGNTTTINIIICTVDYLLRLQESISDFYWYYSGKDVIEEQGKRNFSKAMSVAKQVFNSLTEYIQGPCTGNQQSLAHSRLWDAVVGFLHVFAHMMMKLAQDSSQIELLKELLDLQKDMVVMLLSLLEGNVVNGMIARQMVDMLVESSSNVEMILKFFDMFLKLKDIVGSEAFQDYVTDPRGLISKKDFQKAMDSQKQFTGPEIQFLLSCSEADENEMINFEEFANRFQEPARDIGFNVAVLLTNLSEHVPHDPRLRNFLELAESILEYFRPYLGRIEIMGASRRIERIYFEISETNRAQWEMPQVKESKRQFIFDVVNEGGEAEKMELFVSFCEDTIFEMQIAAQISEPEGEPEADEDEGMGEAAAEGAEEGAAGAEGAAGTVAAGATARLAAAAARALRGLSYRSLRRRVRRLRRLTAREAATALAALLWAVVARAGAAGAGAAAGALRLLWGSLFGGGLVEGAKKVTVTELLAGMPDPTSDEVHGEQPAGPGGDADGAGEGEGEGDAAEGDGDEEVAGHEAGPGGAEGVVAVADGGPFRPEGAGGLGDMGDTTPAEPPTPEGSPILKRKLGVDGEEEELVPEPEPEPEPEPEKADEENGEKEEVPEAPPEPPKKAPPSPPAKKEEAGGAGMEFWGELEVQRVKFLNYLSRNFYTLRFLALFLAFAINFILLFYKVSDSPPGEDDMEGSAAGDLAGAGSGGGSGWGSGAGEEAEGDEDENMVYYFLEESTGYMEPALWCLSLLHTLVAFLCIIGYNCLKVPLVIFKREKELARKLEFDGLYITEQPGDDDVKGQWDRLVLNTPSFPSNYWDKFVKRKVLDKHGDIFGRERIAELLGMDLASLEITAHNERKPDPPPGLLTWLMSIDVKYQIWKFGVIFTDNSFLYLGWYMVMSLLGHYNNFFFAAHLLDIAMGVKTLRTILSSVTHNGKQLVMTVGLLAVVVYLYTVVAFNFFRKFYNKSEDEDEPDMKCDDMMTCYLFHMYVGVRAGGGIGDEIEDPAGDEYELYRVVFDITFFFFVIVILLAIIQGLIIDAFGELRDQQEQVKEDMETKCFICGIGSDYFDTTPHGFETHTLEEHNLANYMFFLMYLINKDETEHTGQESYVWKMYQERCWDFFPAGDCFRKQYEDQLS
SR Ca^2+ release channel (junctional SR vesicles from rabbit skeletal muscle), sequence (P11716 whole entry): as above
T1 sequence (P11716 whole entry): as above

As to `CC1=C(C(C)C)[C@@H](OC(=O)c2ccc[nH]2)[C@@]2(O)[C@@]3(C)CC(=O)O[C@@]4([C@H](O)[C@@H](C)CC[C@]34O)[C@@]12O` [Anhydro-Ryanodine, reference compound], the IC50 in assay [1] and in assay [2] (first embodiment) was over 1000 nM throughout. Also, the Kd (usually a measure of binding affinity in units of concentration) in assay [2] (first embodiment) is over 350 nM.

For the compound `CC1CCC2(O)C3(C)CC4(O)OC2(C1O)C1(O)C3(O)C(OC(=O)c2ccc[nH]2)C(O)(C(C)C)C41C` (stereo not shown) [Ryanodine, ryanodine], the “opening (activation) of the SR CRC (in words)” value in assay [3] was “activates the SR CRC at low μM concentrations; also recorded: induces full opening of the SR CRC”. Moreover, in assay [3] (setting [8]), the “concentration inducing deactivation of the channel” value is listed as “higher than 30 μM” and the “concentration of maximal channel activation” value was “about 30 μM”. For the same compound, the “effect on mammalian cardiac muscle (in words)” value in the assay with mammalian cardiac muscle is reported as “negative inotropic effect”. In addition, in assay [4], the “effect on mammalian skeletal muscle (in words)” value is listed as “irreversible contracture”. In addition, the “closing of the SR Ca^++ release channel (in words)” value in assay [5] (I, NMDS: concentrations as high as 300 μM, ryanodine, dehydroryanodine: >μM) is “closes or inactivates the SR Ca^++ release channels; also recorded: inhibits Ca^++ flux by inactivating or closing the channel; also recorded: the channel is closed”. Besides, the “opening of the SR Ca^++ release channel (in words)” value in assay [5] (ryanodine, dehydroryanodine: low concentrations (<μM)) was “opens the SR Ca^++ release channel/ryanodine receptor”. Moreover, the “opening of the SR Ca^++ release channel (in words)” value in assay [5] (ryanodine, dehydroryanodine: low concentrations (<μM), listed as ryanodine) is given as “enhances Ca^++ flux across the SR membrane by opening the SR Ca^++ release channel; also recorded: the Ca^++ release channel is opened”. Also, the “effect on active uptake of Ca^++ by skeletal muscle SR (in words)” value in assay [6] is recorded as “obstruct active uptake”.

For `CC1CCC2(O)C3(C)CC4(O)OC2(C1OC(=O)CCN)C1(O)C3(O)C(OC(=O)c2ccc[nH]2)C(O)(C(C)C)C41C` (stereo not drawn) [V-II, O10eq -β-Alanyl-Ryanodine], the “opening (activation) of the SR CRC (in words)” value in assay [3] is listed as “induces full opening of the SR CRC”. In addition, the EC (maximal activation) in assay [3] (3 s, 45Ca2+ efflux, skeletal SR vesicles, read-out: concentration of maximal channel activation) is 10 µM. The “closing (deactivation) of the SR CRC (in words)” value in assay [3] (higher concentrations, up to 1 mM for V-II, XXI preliminary) was “none of the closing action seen with high concentrations of ryanodine”. Further, in assay [3] (towards lower concentrations), the “shift of activation curve relative to ryanodine” value is recorded as “three-fold”. Further, the “pharmacological profile (in words)” value in assay [3] (vs biphasic profile of ryanodine) is “altered--unidirectional--pharmacological profile, differing from the biphasic profile of ryanodine”. In addition, the “relative binding affinity compared with ryanodine (in words)” value in assay [7] is on record as “two to three-fold greater RBA”. In addition, the “opening of the SR Ca^++ release channel (in words)” value in assay [5] is recorded as “exhibits only the ability to enhance Ca^++ flux by opening the SR Ca^++ channel”. Further, the “binding affinity for the ryanodine receptor (in words)” value in assay [2] is “approximately four-fold higher affinity”. The Kd stood at 1 ± 0.3 nM in assay [2] (Table I, mean ± standard deviation of replicates) and 1 nM in assay [2] (first embodiment). The IC50 (commonly the concentration at which inhibition is half-maximal) in assay [2] (V-II from direct preparation by hydrogenolysis of IV in presence of triethylamine) was 4.3 nM; in assay [2] (first embodiment), 2.8 ± 0.8 nM. The “binding affinity to the ryanodine receptor relative to ryanodine (times stronger/greater)” value in assay [2] (vs ryanodine) was 3.5-4 times and 4 times.
